pIC50: −log10 of the molar value. ≈ marks a conversion by molar mass, not a printed value.
Experiments:
acid ceramidase = biological target: T1, acid ceramidase (Homo sapiens, UniProt Q13510); test: Acid ceramidase inhibition, biochemical fluorescent assay with cell lysates overexpressing acid ceramidase, substrate Rbm14-12; settings: substrate Rbm14-12 6.3 μM
T1 construct: Cell lysates overexpressing acid ceramidase were used as the enzyme source; expressed in transfected cells
T1 sequence (Q13510 22-395): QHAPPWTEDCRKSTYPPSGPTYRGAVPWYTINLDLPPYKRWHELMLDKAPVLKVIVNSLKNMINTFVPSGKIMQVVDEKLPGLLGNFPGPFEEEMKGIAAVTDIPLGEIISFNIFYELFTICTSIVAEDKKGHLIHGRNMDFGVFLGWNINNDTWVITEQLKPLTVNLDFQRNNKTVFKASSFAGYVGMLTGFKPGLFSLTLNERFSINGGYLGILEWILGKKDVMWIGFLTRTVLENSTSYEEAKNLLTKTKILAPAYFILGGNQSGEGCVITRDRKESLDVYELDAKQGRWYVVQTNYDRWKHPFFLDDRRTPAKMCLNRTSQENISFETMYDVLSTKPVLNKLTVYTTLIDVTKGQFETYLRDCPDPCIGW
Procedure, shortened: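 Lysate of cells overexpressing acid ceramidase (10 μg protein) preincubated with compound dose series 1 hr at RT in 25 mM NaAC, 100 mM NaCl, pH 4.5, then reacted 1 hr with 6.3 μM Rbm14-12. Stopped with NaIO4/glycine buffer pH 10.6, fluorescence ex360/em446; IC50 by four-parameter fit.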

[1] = Compound solubility in water
[2] = pH 4.5, 1 hr preincubation at RT

Row | SMILES | pIC50 (acid ceramidase; [2]) | solubility [1] | pIC50 (acid ceramidase; pH 4.5)
1 | COc1cc2c(cc1N1CCOCC1)ncn2C(=O)NCCc1ccccc1 [Example 38b, 6-methoxy-5-morpholino-N-phenethyl-1H-benzo[d]imidazole-1-carboxamide] | > 6.70 | 18.3 µg/mL (≈ 48.1 µM) | –
2 | CN(C)C1CN(c2cccc3c2ncn3C(=O)NCCOc2ccccc2)C1 [Example 353, 4-(3-(Dimethylamino)azetidin-1-yl)-N-(2-phenoxyethyl)-1H-benzo[d]imidazole-1-carboxamide] | > 6.70 | 16 µg/mL (≈ 42.2 µM) | –
3 | O=C1CCC2CN(c3cccc4c3ncn4C(=O)NCCCc3ccccc3)CCN12 (stereo not shown) [Example 275, 4-(6-Oxohexahydropyrrolo[1,2-a]pyrazin-2(1H)-yl)-N-(3-phenylpropyl)-1H-benzo[d]imidazole-1-carboxamide] | – | 15 µg/mL (≈ 35.9 µM) | > 6.70
4 | CCC#CCNC(=O)n1cnc2c(N3CCN(C)CC3)cccc21 [Example 305, 4-(4-Methylpiperazin-1-yl)-N-(pent-2-yn-1-yl)-1H-benzo[d]imidazole-1-carboxamide] | – | 27 µg/mL (≈ 83 µM) | 6.00 to 6.70
5 | CC(C)CCNC(=O)n1cnc2c(N3C[C@H]4C[C@@H]3CO4)cccc21 [Example 166, 4-((1R,4R)-2-Oxa-5-azabicyclo[2.2.1]heptan-5-yl)-N-iso-pentyl-1H-benzo[d]imidazole-1-carboxamide] | – | 12 µg/mL (≈ 36.5 µM) | 6.00 to 6.70
6 | COc1nc2ccc(-c3cncnc3)cc2n1C(=O)NCCC(C)C [Example 106, N-iso-Pentyl-2-methoxy-6-(pyrimidin-5-yl)-1H-benzo[d]imidazole-1-carboxamide] | 6.00 to 6.70 | 13.7 µg/mL (≈ 40.4 µM) | –
7 | COc1nc2cc(N3[C@@H]4CC[C@H]3COC4)ccc2n1C(=O)NCCCc1ccccc1 [Example 237a, 5-((1R,5S)-3-Oxa-8-azabicyclo[3.2.1]octan-8-yl)-2-methoxy-N-(3-phenylpropyl)-1H-benzo[d]imidazole-1-carboxamide] | – | 1 µg/mL (≈ 2.38 µM) | > 6.70
8 | CN(C)C1CCN(c2cccc3c2ncn3C(=O)NCCCc2ccccc2)C1 (stereo not shown) [Example 264, 4-(3-(Dimethylamino)pyrrolidin-1-yl)-N-(3-phenylpropyl)-1H-benzo[d]imidazole-1-carboxamide] | – | 21 µg/mL (≈ 53.6 µM) | > 6.70
9 | COc1nc2cc(-c3cccnc3)cnc2n1C(=O)NCC(C)C [Example 83, N-iso-Butyl-2-methoxy-6-(pyridin-3-yl)-3H-imidazo[4,5-b]pyridine-3-carboxamide] | 6.00 to 6.70 | 16.9 µg/mL (≈ 51.9 µM) | –
10 | O=C(NCCc1ccccc1)n1cnc2ccc(N3CCCCC3)cc21 [Example 13b, N-Phenethyl-6-(piperidin-1-yl)-1H-benzo[d]imidazole-1-carboxamide] | > 6.70 | 9.1 µg/mL (≈ 26.1 µM) | –
11 | COc1nc2ccc(N3CCC4(CC3)COC4)cc2n1C(=O)NCCCc1ccccc1 [Example 238a, 2-Methoxy-N-(3-phenylpropyl)-6-(2-oxa-7-azaspiro[3,5]nonan-7-yl)-1H-benzo[d]imidazole-1-carboxamide] | – | 11 µg/mL (≈ 25.3 µM) | > 6.70
12 | CCCCNC(=O)n1cnc2cc(F)ccc21 [Example 67, N-Butyl-5-fluoro-1H-benzo[d]imidazole-1-carboxamide] | > 6.70 | 22.5 µg/mL (≈ 95.6 µM) | –
13 | CC(C)CCNC(=O)n1cnc2c(N3CCC(F)(F)CC3)cccc21 [Example 143, 4-(4,4-Difluoropiperidin-1-yl)-N-isopentyl-1H-benzo[d]imidazole-1-carboxamide] | 6.00 to 6.70 | 2 µg/mL (≈ 5.71 µM) | –
14 | CC(C)CCNC(=O)n1cnc2c(N3C[C@H](C)O[C@@H](C)C3)cccc21 (stereo in doubt) [Example 168, 4-((2S,6S)-2,6-Dimethylmorpholino)-N-iso-pentyl-1H-benzo[d]imidazole-1-carboxamide] | – | 11 µg/mL (≈ 31.9 µM) | 6.00 to 6.70
15 | O=C(NCCCc1ccccc1)n1cnc2ncccc21 [Example 59, N-(3-Phenylpropyl)-1H-imidazo[4,5-b]pyridine-1-carboxamide] | > 6.70 | 24.6 µg/mL (≈ 87.8 µM) | –
16 | O=C(NCCc1ccccc1)n1cnc2c(N3CCN(C4COC4)CC3)cccc21 [Example 326, 4-(4-(Oxetan-3-yl)piperazin-1-yl)-N-phenethyl-1H-benzo[d]imidazole-1-carboxamide] | – | 21 µg/mL (≈ 51.8 µM) | > 6.70
17 | COc1nc2ccccc2n1C(=O)NCCc1ccccc1 [Example 3, 2-Methoxy-N-phenethyl-1H-benzo[d]imidazole-1-carboxamide] | > 6.70 | 10 µg/mL (≈ 33.9 µM) | –
18 | CC(C)CCNC(=O)n1cnc2c(N3CCN(C4CCOCC4)CC3)cccc21 [Example 155, N-iso-Pentyl-4-(4-(tetrahydro-2H-pyran-4-yl)-piperazin-1-yl)-1H-benzo[d]imidazole-1-carboxamide] | 6.00 to 6.70 | 30 µg/mL (≈ 75.1 µM) | –
19 | CC(C)CCNC(=O)n1cnc2c(N3CCN(C4CC4)C(=O)C3)cccc21 [Example 206, 4-(4-Cyclopropyl-3-oxopiperazin-1-yl)-N-isopentyl-1H-benzo[d]imidazole-1-carboxamide] | – | 20 µg/mL (≈ 54.1 µM) | 6.00 to 6.70
20 | CC(=O)N1CCN(c2cccc3c2ncn3C(=O)NCC2(CC(C)C)CC2)CC1 [Example 222, 4-(4-Acetylpiperazin-1-yl)-N-((1-iso-butyl-cyclopropyl)methyl)-1H-benzo[d]imidazole-1-carboxamide] | – | 7 µg/mL (≈ 17.6 µM) | > 6.70
21 | O=C(NCCc1ccccc1)n1cnc2cc(-c3ccccn3)c(Cl)cc21 [Example 7a, 6-Chloro-N-phenethyl-5-(pyridin-2-yl)-1H-benzo[d]imidazole-1-carboxamide] | > 6.70 | 0.4 µg/mL (≈ 1.06 µM) | –
22 | CN1CCCN(c2cccc3c2ncn3C(=O)NCCCc2ccccc2)CC1 [Example 269, 4-(4-Methyl-1,4-diazepan-1-yl)-N-(3-phenylpropyl)-1H-benzo[a]imidazole-1-carboxamide] | – | 21 µg/mL (≈ 53.6 µM) | > 6.70
23 | CN1CCC(c2cc3c(cc2Cl)ncn3C(=O)NCCc2ccccc2)CC1 [Example 11a, 5-Chloro-6-(1-methylpiperidin-4-yl)-N-phenethyl-1H-benzo[d]imidazole-1-carboxamide] | > 6.70 | 23.1 µg/mL (≈ 58.2 µM) | –
24 | CCOc1nc2c(F)cccc2n1C(=O)NCCc1ccccc1 [Example 92, 2-Ethoxy-4-fluoro-N-phenethyl-1H-benzo[d]imidazole-1-carboxamide] | > 6.70 | 1.2 µg/mL (≈ 3.67 µM) | –
25 | O=C(NCCc1ccccc1)n1cnc2cccnc21 [Example 19b, N-phenethyl-3H-imidazo[4,5-b]pyridine-3-carboxamide] | > 6.70 | 24.5 µg/mL (≈ 92 µM) | –

Continued, values first:

Row | pIC50 (acid ceramidase; [2]) | solubility [1] | pIC50 (acid ceramidase; pH 4.5) | SMILES
26 | 6.00 to 6.70 | 22.8 µg/mL (≈ 70.1 µM) | – | COc1nc2ccc(-c3cncnc3)cc2n1C(=O)NCC(C)C [Example 81a, N-iso-Butyl-2-methoxy-6-(pyrimidin-5-yl)-1H-benzo[d]imidazole-1-carboxamide]
27 | – | 12 µg/mL (≈ 27.9 µM) | > 6.70 | COc1nc2cc(N3CCOCC3)ccc2n1C(=O)NCCCc1ccc(F)cc1F [Example 224b, N-(3-(2,4-difluorophenyl)propyl)-2-methoxy-5-morpholino-1H-benzo[d]-imidazole-1-carboxamide]
28 | – | 4 µg/mL (≈ 9.7 µM) | > 6.70 | COc1nc2ccc(N3CCOCC3)cc2n1C(=O)NCCCc1ccc(F)cc1 [Example 221a]
29 | – | 2 µg/mL (≈ 4.9 µM) | > 6.70 | CCOc1nc2cc(N3CCOCC3)ccc2n1C(=O)NCCCc1ccccc1 [Example 189a, 2-Ethoxy-5-morpholino-N-(3-phenylpropyl)-1H-benzo[d]imidazole-1-carboxamide]
30 | > 6.70 | 34.8 µg/mL (≈ 87.3 µM) | – | CCCCNC(=O)n1cnc2ccc(N3CCC(N4CCN(C)CC4)CC3)cc21 [Example 102a, N-Butyl-6-(4-(4-methylpiperazin-1-yl)piperidin-1-yl)-1H-benzo[d]imidazole-1-carboxamide]
31 | – | 17 µg/mL (≈ 38.8 µM) | > 6.70 | COCCOc1nc2cc(N3CCOCC3)ccc2n1C(=O)NCCCc1ccccc1 [Example 190a, 2-(2-Methoxyethoxy)-5-morpholino-N-(3-phenylpropyl)-1H-benzo[d]imidazole-1 carboxamide]
32 | – | 14 µg/mL (≈ 33.3 µM) | 6.00 to 6.70 | COc1nc2ccc(N3CCOCC3)cc2n1C(=O)NCC1CC1Cc1ccccc1 (stereo not shown) [Example 231a, N-((2-benzylcyclopropyl)methyl)-2-methoxy-6-morpholino-1H-benzo[d]imidazole-1-carboxamide]
33 | < 6.00 | 32.4 µg/mL (≈ 99.6 µM) | – | CCC(C)NC(=O)n1c(OC)nc2cc(-c3cncnc3)ccc21 (stereo not shown) [Example 109b, N-(sec-butyl)-2-methoxy-5-(pyrimidin-5-yl)-1H-benzo[d]imidazole-1-carboxamide]
34 | – | 35 µg/mL (≈ 72.8 µM) | 6.00 to 6.70 | COc1nc2cc(N3CCN(C4CN(C)C4)CC3)c(F)cc2n1C(=O)NCCCc1ccccc1 [Example 319a, 6-Fluoro-2-methoxy-5-(4-(1-methylazetidin-3-yl)piperazin-1-yl)-N-(3-phenylpropyl)-1H-benzo[d]imidazole-1-carboxamide]
35 | – | 13 µg/mL (≈ 30.9 µM) | > 6.70 | COc1nc2cc(N3CCOCC3)ccc2n1C(=O)NCC1CC1Cc1ccccc1 (stereo not shown) [Example 231b, N-((2-benzylcyclopropyl)methyl)-2-methoxy-5-morpholino-1H-benzo[d]imidazole-1-carboxamide]
